Columns and labels:
[1] = Stability of compounds in human plasma; conditions: 50% human plasma/PBS pH 7.4, 37° C.
Experimental: Briefly test compounds (20 μM) were prepared from a 1 mM stock solution. The human plasma sample (200 μl) was diluted with 160 μl phosphate-buffer saline (PBS, pH 7.4) to a concentration of 50% v/v before use. Solutions were then vortexed and placed on a 37° C. shaker and shaken gently for 10 minutes. 40 μl of the test compounds were then added to the plasma sample and vortexed. For the reaction time t=0 hour, 50 μl of sample was immediately transferred into an eppendorf tube and quenched with 150 μl cold acetonitrile. The remaining plasma solution was incubated and shaken at 37° C. Other samples were collected at time points of 0, 1, 3, 6 and 24 hours whereby 50 μl aliquots were removed and quenched with 150 μl cold acetonitrile. All samples were placed in a 4° C. fridge for 10 minutes then centrifuged at 3000 rpm for 15 minutes. The supernatant (100 μl) was transferred to a glass vial insert for LCMS analysis. The percentage of test compounds remaining at the individual time points relative to sample at time point 0 hour were reported.
Plasma: Human Plasma (Pooled Normal Human Plasma Heparin Anticoagulant 50 mL (IPLA-2 N-04 lot IR09-1001, originally from Innovative Research and imported by BioCore).
All compounds in 100% water (40 μL in 400 μL assay volume equivalent […])
Compounds: 40 μL of the vancomycin derivative solution was added to 160 μL of PBS (pH 7.4) respectively in an Eppendorf tube. 600 μL of cold acetonitrile was added, the tube vortexed and transferred to a glass vial for LC-MS analysis.
Eucatropine: 200 μL of plasma and 190 μL of buffer were vortexed, shaken at 37° C. for 10 minutes. 10 μL of eucatropine solution was then added and the tube vortexed. A 50 μL aliquot was immediately transferred to an Eppendorf tube, 150 μL of cold acetonitrile added and the tube transferred to a 4° C. fridge for 10 minutes. The remaining plasma solution was then transferred to the incubator and shaken at 37° C. The tube was retrieved from the fridge, centrifuged at 3000 rpm for 15 min and 100 μL of supernatant transferred to a glass vial insert for LC-MS analysis. 50 μL aliquots were processed as above at 1, […], 3, 6 and 24 hours and 5 μL was injected into triple quad MS system for analysis. Vancomycin derivatives: 200 μL of plasma and 160 μL of buffer were vortexed and shaken at 37° C. for 10 minutes. 40 μL of compound was then added and the sample was processed as above.

[2] = tested on: Enterococcus faecium MDR Van A ATCC 51559; assay: MIC assay, E. faecium MDR Van A ATCC 51559; assay type: cell-based; conditions: 24 h incubation, visual reading
How it was run: (§1)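 Twofold broth microdilution in Mueller Hinton broth; compounds tested from 8 μg/ml to 0.003 μg/ml. Mid-log cultures were inoculated at 5×10e5 CFU/mL and incubated 24 h at 37° C. MIC was the lowest concentration with no visible growth.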

[3] = tested on: MRSA (Strain ATCC 43300); assay: Murine thigh infection model (MRSA); assay type: in vivo, Staphylococcus aureus; conditions: neutropenic CD1 mice
[4] = tested on: Streptococcus pneumoniae MDR ATCC 700677; assay: MIC assay, S. pneumoniae MDR ATCC 700677; assay type: cell-based; conditions: 24 h incubation, visual reading
How it was run: as §1

[5] = tested on: Staphylococcus aureus MRSA ATCC 43300; assay: MIC assay, S. aureus MRSA ATCC 43300; assay type: cell-based; conditions: 24 h incubation, visual reading
How it was run: as §1

[6] = single subcutaneous dose 10 mg/kg
[7] = single subcutaneous dose 25 mg/kg

Row | SMILES | % compound remaining after incubation in 50% human plasma ([1]; 0 h (reference time point)) | % compound remaining after incubation in 50% human plasma ([1]; 1 h) | % compound remaining after incubation in 50% human plasma ([1]; 3 h) | % compound remaining after incubation in 50% human plasma ([1]; 6 h) | % compound remaining after incubation in 50% human plasma ([1]; 24 h) | Minimum Inhibitory Concentration (MIC) E. faecium ATCC51559 [2] | Average Reduction log Δcfu MRSA/thigh after 26 h [3, 6] | Average Reduction log Δcfu MRSA/thigh after 26 h [3, 7] | Minimum Inhibitory Concentration (MIC) S. pneumoniae ATCC 700677 [4] | Minimum Inhibitory Concentration (MIC) Staph. aureus ATCC43300 [5] | Average Reduction log Δcfu MRSA/thigh after 26 h ([3]; single subcutaneous dose 200 mg/kg) | Average Reduction log Δcfu MRSA/thigh after 26 h ([3]; single subcutaneous dose 50 mg/kg)
1 | CCCCCCCCCCC(=O)N[C@@H](CCCCN)C(=O)N[C@@H](CCCCNC(=O)[C@H]1NC(=O)[C@H]2NC(=O)[C@H](NC(=O)[C@@H]3NC(=O)[C@H](CC(N)=O)NC(=O)[C@H](NC(=O)[C@@H](CC(C)C)NC)[C@H](O)c4ccc(c(Cl)c4)Oc4cc3cc(c4O[C@@H]3O[C@H](CO)[C@@H](O)[C@H](O)[C@H]3O[C@H]3C[C@](C)(N)[C@H](O)[C@H](C)O3)Oc3ccc(cc3Cl)[C@H]2O)c2ccc(O)c(c2)-c2c(O)cc(O)cc21)C(=O)O [MCC_000080, nC10CO-K-K(Vanc)-OH] | 100% | 101% | 101% | 100% | 89% | x (x = >4) | xxx (xxx = 4-6) | xxxx (xxxx = >6) | xxx (xxx = 0.1-<1) | xxx (xxx = 0.1-<1) |  | 
2 | CN[C@H](CC(C)C)C(=O)N[C@H]1C(=O)N[C@@H](CC(N)=O)C(=O)N[C@H]2C(=O)N[C@H]3C(=O)NC(C(=O)N[C@H](C(=O)O)c4cc(O)cc(O)c4-c4cc3ccc4O)[C@H](O)c3ccc(c(Cl)c3)Oc3cc2cc(c3OC2OC(CO)C(O)C(O)C2OC2CC(C)(N)C(O)C(C)O2)Oc2ccc(cc2Cl)[C@H]1O (stereo partly drawn) [MCC_000095, vancomycin, reference compound] | 100% | 176% | 145% | 149% | 65% |  |  | x (x = 0-2) |  |  | xxx (xxx = 4-6) | 
3 | CNC(CC(C)C)C(=O)NC1C(=O)NC(CC(N)=O)C(=O)NC2C(=O)NC3C(=O)NC(C(=O)NC(C(=O)NCCCCC(NC(=O)C(CCCCN)NC(=O)C(CCCCN)NC(=O)c4ccc(Oc5ccccc5)cc4)C(=O)O)c4cc(O)cc(O)c4-c4cc3ccc4O)C(O)c3ccc(c(Cl)c3)Oc3cc2cc(c3OC2OC(CO)C(O)C(O)C2OC2CC(C)(N)C(O)C(C)O2)Oc2ccc(cc2Cl)C1O (stereo not drawn) [MCC_000214, (4-PhO-PhCO)-KK-K(Vanc)-OH] | 100% | 101% |  | 107% | 111% | x (x = >4) |  |  | xxx (xxx = 0.1-<1) | xxx (xxx = 0.1-<1) |  | xxx (xxx = 4-6)
4 | CCCCCCCCCC(=O)N[C@@H](CCCCN)C(=O)NCCCNC(=O)[C@H]1NC(=O)[C@H]2NC(=O)[C@H](NC(=O)[C@@H]3NC(=O)[C@H](CC(N)=O)NC(=O)[C@H](NC(=O)[C@@H](CC(C)C)NC)[C@H](O)c4ccc(c(Cl)c4)Oc4cc3cc(c4O[C@@H]3O[C@H](CO)[C@@H](O)[C@H](O)[C@H]3O[C@H]3C[C@](C)(N)[C@H](O)[C@H](C)O3)Oc3ccc(cc3Cl)[C@H]2O)c2ccc(O)c(c2)-c2c(O)cc(O)cc21 [MCC_005200] |  |  |  |  |  | xx (xx = 1-4) | xx (xx = 2-4) |  | xxxx (xxxx = 0.01-<0.1) | xxxx (xxxx = 0.01-<0.1) |  | 
5 | CCCCCCCCC(=O)N[C@@H](CCCCN)C(=O)N[C@@H](CCCCNC(=O)[C@H]1NC(=O)[C@H]2NC(=O)[C@H](NC(=O)[C@@H]3NC(=O)[C@H](CC(N)=O)NC(=O)[C@H](NC(=O)[C@@H](CC(C)C)NC)[C@H](O)c4ccc(c(Cl)c4)Oc4cc3cc(c4O[C@@H]3O[C@H](CO)[C@@H](O)[C@H](O)[C@H]3O[C@H]3C[C@](C)(N)[C@H](O)[C@H](C)O3)Oc3ccc(cc3Cl)[C@H]2O)c2ccc(O)c(c2)-c2c(O)cc(O)cc21)C(=O)O [MCC_005223] |  |  |  |  |  | x (x = >4) | x (x = 0-2) |  | xx (xx = 1-4) | xxx (xxx = 0.1-<1) |  | 
6 | CNC(CC(C)C)C(=O)NC1C(=O)NC(CC(N)=O)C(=O)NC2C(=O)NC3C(=O)NC(C(=O)NC(C(=O)NCCCNC(=O)C(CCCCN)NC(=O)C(CCCCN)NC(=O)c4ccc(Oc5ccccc5)cc4)c4cc(O)cc(O)c4-c4cc3ccc4O)C(O)c3ccc(c(Cl)c3)Oc3cc2cc(c3OC2OC(CO)C(O)C(O)C2OC2CC(C)(N)C(O)C(C)O2)Oc2ccc(cc2Cl)C1O (stereo not drawn) [MCC_005364] |  |  |  |  |  | xx (xx = 1-4) | xx (xx = 2-4) |  | xxxx (xxxx = 0.01-<0.1) | xxxxx (xxxxx = <0.01) |  | 
7 | CCCCCCCCCC(=O)N[C@@H](CCCCN)C(=O)N[C@@H](CCCCN)C(=O)N[C@@H](CCCCN)C(=O)NCCCNC(=O)[C@H]1NC(=O)[C@H]2NC(=O)[C@H](NC(=O)[C@@H]3NC(=O)[C@H](CC(N)=O)NC(=O)[C@H](NC(=O)[C@@H](CC(C)C)NC)[C@H](O)c4ccc(c(Cl)c4)Oc4cc3cc(c4O[C@@H]3O[C@H](CO)[C@@H](O)[C@H](O)[C@H]3O[C@H]3C[C@](C)(N)[C@H](O)[C@H](C)O3)Oc3ccc(cc3Cl)[C@H]2O)c2ccc(O)c(c2)-c2c(O)cc(O)cc21 [MCC_005201] |  |  |  |  |  | xx (xx = 1-4) | xx (xx = 2-4) |  | xxxx (xxxx = 0.01-<0.1) | xxxx (xxxx = 0.01-<0.1) |  | 
8 | CCCCCCCC(O)CC(=O)N[C@@H](CCCCN)C(=O)N[C@@H](CCCCN)C(=O)NCCCNC(=O)[C@H]1NC(=O)[C@H]2NC(=O)[C@H](NC(=O)[C@@H]3NC(=O)[C@H](CC(N)=O)NC(=O)[C@H](NC(=O)[C@@H](CC(C)C)NC)[C@H](O)c4ccc(c(Cl)c4)Oc4cc3cc(c4O[C@@H]3O[C@H](CO)[C@@H](O)[C@H](O)[C@H]3O[C@H]3C[C@](C)(N)[C@H](O)[C@H](C)O3)Oc3ccc(cc3Cl)[C@H]2O)c2ccc(O)c(c2)-c2c(O)cc(O)cc21 (stereo partly drawn) [MCC_005483] |  |  |  |  |  | x (x = >4) | xxx (xxx = 4-6) |  | xxxx (xxxx = 0.01-<0.1) | xxxx (xxxx = 0.01-<0.1) |  | 
